Columns and labels:
[1] = In vivo determination of whole blood-to-plasma ratio; parameters: species or system male C57BL/6 mice; details: mouse blood, 15 min and 1 h post-dose
Protocol: Blood was collected from mice at 15 min and 1 h post-dose of each compound for the purposes of determining the whole blood-to-plasma (B/P) ratio. […] No adverse reactions or compound-related side effects observed in any mice during the 24 h sampling period after dosing any of the compounds. Plasma samples were also taken from 2 mice that were not administered test compound for use as analytical tool.
Analysis of B/P partitioning samples was conducted similarly and quantified against calibration standards samples prepared using a 1:1 v/v mixture of blank mouse blood and plasma. The matrix matched B/P partitioning samples and standards were processed using protein precipitation with acetonitrile as described above.
In Vivo Determination of Whole Blood-to-Plasma Ration
Blood was collected via cardiac puncture (whilst under gaseous isoflurane anaesthesia) into tubes containing heparin and stabilisation cocktail. The haematocrit was determined via centrifugation (13000×g for 4 min using a Clemets® Microhematocrit centrifuge and Safecap® Plain Self-sealing Mylar Wrapped capillary tubes), and values ranged from 38% to 40% for PF670462 and 38% to 44% for ZH3-138. […]
The B/P ratio was obtained by dividing the average measured concentration in blood by the average concentration measured in plasma following centrifugation of whole blood.

[2] = format: in vitro ADME, mouse
Protocol: Incubation: The metabolic stability assay was performed by incubating each test compound in human liver microsomes at 37° C. and a protein concentration of 0.4 mg/mL. The metabolic reaction was initiated by the addition of an NADPH-regenerating system and quenched at various time points over a 60 minute incubation period by the addition of acetonitrile containing diazepam as internal standard. Control samples (containing no NADPH) were included (and quenched at 2, 30 and 60 minutes) to monitor for potential degradation in the absence of cofactor. The human liver microsomes used in this experiment were supplied by XenoTech, lot #1410230. Microsomal incubations were performed at a substrate concentration of 1 μM. Data analysis: Species scaling factors from Ring et al. (2011) JPharmSci, 100:4090-4110 were used to convert the in vitro CLint (μL/min/mg) to an in vivo CLint(mL/min/kg). Hepatic blood clearance and the corresponding hepatic extraction ratio (EH) were calculated using the well stirred model of hepatic extraction in each species, according to the “in vitro T1/2” approach described in Obach (1999) DrugMetab. Dispos. 27:1350-1359. The EH was then used to classify compounds as low(<0.3), intermediate (0.3-0.7), high (0.7-0.95) or very high (>0.95) extraction compounds. Predicted in vivo clearance values have not been corrected for microsomal or plasma protein binding. Species scaling calculations are based on two assumptions: 1) NADPH-dependent oxidative metabolism predominates over other metabolic routes (i.e. direct conjugative metabolism, reduction, hydrolysis, etc.), and; 2) rates of metabolism and enzyme activities in vitro are truly reflective of those that exist in vivo. […] [table]

[3] = tested on: interleukin-1α (IL1α)-mediated cytokine production by the lung adenocarcinoma cell line A549; assay: Cellular assay (A549) against IL1α-mediated cytokine production; format: cell-based, human; details: serum starved A549 cells, compound 30 min prior to IL-1α (1 ng/ml) for 24 h, ELISA
Protocol: Cellular Assay (A549 Human Lung Adenocarcinoma Cells) Assessing Effect of ZH3-138, ZH3-126 and PF670462 Against IL1α-Mediated Cytokine Production
The anti-inflammatory potential of selected compounds was examined by establishing the effects on interleukin-1α (IL1α)-mediated cytokine production by the lung adenocarcinoma cell line A549. Serum starved A549 cells were treated with various concentrations of the relevant CK1δ inhibitor (PF670462, ZH3-126 and ZH3-138) 30 min prior to IL-1α (1 ng/ml) for 24 h. Supernatant was collected and concentration of IL-6, IL-8 and GM-CSF was detected by ELISA. Data are presented as mean±SEM across three replicates in FIG. 7 (A: IL-6; B: IL-8 and C: GM-CSF).

[4] = molecular target: T1, human recombinant Casein kinase 18 (CK1δ) (Homo sapiens, UniProt P48730); assay: Kinase inhibition assay (HotSpot, Reaction Biology Corp), CK1δ; format: biochemical; details: 10 μM ATP, 10-dose IC50 mode; read-out: Compound IC50 (M) CK1δ
T1 construct: purchased Reaction Biology Corp

MINK/MINK1 = molecular target: T2, MINK/MINK1 (Homo sapiens, UniProt Q8N4C8); assay: Kinase inhibition assay (HotSpot), MINK/MINK1; format: biochemical; details: 10 μM ATP, 10-dose IC50 mode; read-out: Compound IC50 (M) MINK/MINK1
T2 construct: purchased Reaction Biology Corp
T2 sequence (Q8N4C8 whole entry): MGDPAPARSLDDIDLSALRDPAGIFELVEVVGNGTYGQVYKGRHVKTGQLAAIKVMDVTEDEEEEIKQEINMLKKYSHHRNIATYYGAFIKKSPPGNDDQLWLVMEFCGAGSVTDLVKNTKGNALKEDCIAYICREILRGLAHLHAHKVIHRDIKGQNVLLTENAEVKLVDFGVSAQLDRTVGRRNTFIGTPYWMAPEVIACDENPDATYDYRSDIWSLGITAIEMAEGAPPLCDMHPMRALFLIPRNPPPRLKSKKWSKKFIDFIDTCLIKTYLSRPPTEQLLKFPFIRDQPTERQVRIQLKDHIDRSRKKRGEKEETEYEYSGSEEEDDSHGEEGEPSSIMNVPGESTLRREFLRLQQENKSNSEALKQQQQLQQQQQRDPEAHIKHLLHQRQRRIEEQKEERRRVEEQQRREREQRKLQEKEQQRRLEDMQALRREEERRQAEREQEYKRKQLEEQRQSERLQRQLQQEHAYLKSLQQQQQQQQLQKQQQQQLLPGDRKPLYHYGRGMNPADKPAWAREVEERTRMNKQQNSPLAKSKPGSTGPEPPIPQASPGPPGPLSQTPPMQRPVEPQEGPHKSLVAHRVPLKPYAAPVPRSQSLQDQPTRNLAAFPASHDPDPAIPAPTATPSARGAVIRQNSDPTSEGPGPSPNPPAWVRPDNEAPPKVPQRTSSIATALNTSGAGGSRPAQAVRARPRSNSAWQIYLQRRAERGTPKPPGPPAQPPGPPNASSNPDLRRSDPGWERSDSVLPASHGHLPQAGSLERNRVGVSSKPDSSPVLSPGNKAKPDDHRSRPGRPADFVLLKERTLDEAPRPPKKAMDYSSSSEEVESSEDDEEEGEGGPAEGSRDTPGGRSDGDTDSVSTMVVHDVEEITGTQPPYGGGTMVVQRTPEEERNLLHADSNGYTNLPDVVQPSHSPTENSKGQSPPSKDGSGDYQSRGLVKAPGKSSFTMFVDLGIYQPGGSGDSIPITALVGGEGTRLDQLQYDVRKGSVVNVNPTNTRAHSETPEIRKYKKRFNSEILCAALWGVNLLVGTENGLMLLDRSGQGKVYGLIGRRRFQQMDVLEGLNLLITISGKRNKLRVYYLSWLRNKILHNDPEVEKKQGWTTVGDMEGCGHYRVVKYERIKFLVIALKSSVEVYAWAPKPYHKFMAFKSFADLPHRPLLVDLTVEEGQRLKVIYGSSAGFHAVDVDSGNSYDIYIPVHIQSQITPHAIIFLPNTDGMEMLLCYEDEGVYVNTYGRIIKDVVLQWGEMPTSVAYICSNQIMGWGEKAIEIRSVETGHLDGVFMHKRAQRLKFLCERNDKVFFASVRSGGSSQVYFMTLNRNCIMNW

T1 sequence (P48730 whole entry): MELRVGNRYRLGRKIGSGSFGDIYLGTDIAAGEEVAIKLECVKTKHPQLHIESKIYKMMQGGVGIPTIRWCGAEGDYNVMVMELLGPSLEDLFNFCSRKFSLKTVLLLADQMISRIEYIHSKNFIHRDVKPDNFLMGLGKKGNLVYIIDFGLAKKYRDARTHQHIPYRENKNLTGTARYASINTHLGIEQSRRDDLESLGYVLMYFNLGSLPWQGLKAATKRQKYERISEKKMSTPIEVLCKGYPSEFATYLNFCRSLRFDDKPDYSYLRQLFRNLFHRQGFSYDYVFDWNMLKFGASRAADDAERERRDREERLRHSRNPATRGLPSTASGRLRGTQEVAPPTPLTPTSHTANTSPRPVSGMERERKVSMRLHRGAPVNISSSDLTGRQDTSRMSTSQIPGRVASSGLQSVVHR

Nc1nccc(-c2c(-c3ccc(F)cc3)ncn2C2CCCCC2)n1 [PF670462, reference compound]
apparent whole blood-to-plasma ratio (B/P) [1]: 1.0
Predicted CLblood [2]: 108 mL/min/kg
Predicted CLint, in vivo [2]: 1105 mL/min/kg
Predicted EH (hepatic extraction ratio) [2]: 0.90
CLint, in vitro ([2]; mouse, microsomes): 428 μL/min/mg protein
T1/2 ([2]; mouse, microsomes): 4 min

Nc1nccc(-c2c(-c3ccc(F)cc3)ncn2C2CCC(F)(F)CC2)n1 [ZH3-138, 4-(1-(4,4-Difluorocyclohexyl)-4-(4-fluorophenyl)-1H-imidazol-5-yl)pyrimidin-2-amine]
blood plasma ratio ([1]; male, C57BL/6, whole blood and plasma, read-out: apparent whole blood-to-plasma ratio (B/P)): 0.91
supernatant concentrations of inflammatory biomarkers (IL-6, IL-8, GM-CSF) [3]: ability to reduce supernatant concentrations of other inflammatory biomarkers
IC50 [4]: 9.32e-09 M
IC50 (MINK/MINK1): 1.15e-06 M

Source: patent US20220281846A1, “COMPOUNDS AND COMPOSITIONS FOR THE TREATMENT OF RESPIRATORY DISEASES” (THE UNIVERSITY OF MELBOURNE, priority 2018, published 2022)
